Results: patent publication EP2508198B1, “Peptides for suppressing inflammation reactions in hemodialysis” (Fresenius Medical Care Deutschland GmbH, priority 2011, dated 2014)
Residues, ends and D or L forms follow the SMILES beside them.

How the values were obtained:
[1] = tested on: IL-6; experiment: Whole blood from uremic patients stimulated ex vivo with LPS with or without peptides (non heated and heated), IL-6 ELISA; type: cell-based, human; settings: whole blood of uremic patients, LPS 1 ng/ml, 24 h; average over the tested concentrations
Experimental: (§1) Whole blood studies with blood from uremic patients including heat sterilization experiments
(§2) A first goal of this experiment was to test whether the three amino acid antiinflammatory peptide KPV (unpegylated and pegylated version "monopeptide") will retain its activity under conditions of steam sterilization at 125°C for 15 min used in the production process of dialysis modules. A second goal was to study the anti-inflammatory effect of alpha-MSH and the peptides in uremic patients, which represent the real clinical situation.
(§3) To perform this experiment whole blood samples were taken from voluntary uremic patients (n=10) and subsequently stimulated ex vivo with lipopolysaccharide (LPS) with or without alpha-MSH, KPV or pegylated KPV (non heated and heated) and TNF-α and IL-6 release was determined by ELISA.
(§4) 25 ml blood from 10 uremic patients (dialysis patients treated at the hospital in Konstanz, Germany) was drawn and blood values were analyzed immediately. Blood was 1:10 diluted with PBS buffer and each stimulation condition was performed in triplicates and incubated at 200 µl in 96 well plates. […]

[2] = tested on: TNF-α; experiment: Whole blood from uremic patients stimulated ex vivo with LPS with or without peptides (non heated and heated), TNF-α ELISA; type: cell-based, human; settings: whole blood of uremic patients, LPS 1 ng/ml, 24 h; average over the tested concentrations
Experimental: as §1, §2, §3, §4

[3] = tested on: LPS-induced TNF-α release; experiment: Ex vivo stimulation of human PBMCs with LPS (pre-incubation or co-stimulation with peptides), TNF-α ELISA of supernatants; type: cell-based; parameters: TNF-α, Donor 2 / TNF-α, Donor 3 / TNF-α, Donor 4 / TNF-α, Donor 5 / TNF-α, Donor 6 / TNF-α, MV+SD: unit not given here; settings: for TNF-α, %: % of LPS control c (100.00); for effect on LPS-induced TNF-α release ("inflammation"): pre-stimulation or co-incubation
Experimental: Ex vivo stimulation of human peripheral blood mononuclear cells (PBMCs)
For the stimulation of PBMCs the following concentrations were chosen: • LPS 1 ng/ml alone • α-MSH • ∘ 1µM; 10µM; 100µM • Peg-KPV (pegylated tripeptide) • ∘ 1µM; 10µM; 100µM; 1000µM
The stimulation procedure was as described below:
All cells were incubated for 24h and centrifuged at 1700 rpm and supernatants were used for TNF- α ELISA measurement according to manufacturer's protocols.

[4] = LPS 3 h pre-incubation, then LPS+peptide 24h, peptide 1 µM
[5] = LPS 3 h pre-incubation, then LPS+peptide 24h, peptide 10 µM
[6] = LPS 3 h pre-incubation, then LPS+peptide 24h, peptide 100 µM
[7] = LPS 3 h pre-incubation, then LPS+peptide 24h, peptide 1000 µM
[8] = LPS + peptide simultaneously, 24h, peptide 1 µM
[9] = LPS + peptide simultaneously, 24h, peptide 10 µM
[10] = LPS + peptide simultaneously, 24h, peptide 100 µM
[11] = LPS + peptide simultaneously, 24h, peptide 1000 µM
[12] = mean of donors, LPS 3 h pre-incubation, then LPS+peptide 24h, peptide 1 µM
[13] = mean of donors, LPS 3 h pre-incubation, then LPS+peptide 24h, peptide 10 µM
[14] = mean of donors, LPS 3 h pre-incubation, then LPS+peptide 24h, peptide 100 µM
[15] = mean of donors, LPS + peptide simultaneously, 24h, peptide 1 µM
[16] = mean of donors, LPS + peptide simultaneously, 24h, peptide 10 µM
[17] = mean of donors, LPS + peptide simultaneously, 24h, peptide 100 µM

`CC(=O)N[C@@H](CCCCN)C(=O)N1CCC[C@H]1C(=O)N[C@H](C(N)=O)C(C)C` [KPV, Ac-Lys-Pro-Val-NH2] (Ac-Lys-Pro-Val-NH2) was tested, and the “average inhibition for IL-6” value [1] was “around 20%”, the “average inhibition for TNF-α” value [2] was “around 30%” and the “TNF-α, %” value [3, 4] was 85.28%. For the same compound, the “TNF-α, %” value [3, 5] was 83.53%, the “TNF-α, %” value [3, 6] was 73.40% and the “TNF-α, %” value [3, 7] was 38.98%. For the same compound, the “TNF-α, %” value [3, 8] was 78.64%, the “TNF-α, %” value [3, 9] was 74.30% and the “TNF-α, %” value [3, 10] was 65.76%. The “TNF-α, %” value [3, 11] was 25.35%, the “TNF-α, Donor 2” value [3, 4] was 4025 and the “TNF-α, Donor 3” value [3, 4] was 4554. The “TNF-α, Donor 4” value [3, 4] was 3541, the “TNF-α, Donor 5” value [3, 4] was 2301 and the “TNF-α, Donor 6” value [3, 4] was 4299. For the same compound, the “TNF-α, Donor 2” value [3, 5] was 4126, the “TNF-α, Donor 3” value [3, 5] was 4387 and the “TNF-α, Donor 4” value [3, 5] was 3666. For the same compound, the “TNF-α, Donor 5” value [3, 5] was 2209, the “TNF-α, Donor 6” value [3, 5] was 3949 and the “TNF-α, Donor 2” value [3, 6] was 3542. The “TNF-α, Donor 3” value [3, 6] was 5022, the “TNF-α, Donor 4” value [3, 6] was 2886 and the “TNF-α, Donor 5” value [3, 6] was 1931. The “TNF-α, Donor 6” value [3, 6] was 3731, the “TNF-α, Donor 3” value [3, 7] was 1816 and the “TNF-α, Donor 4” value [3, 7] was 1494. The “TNF-α, Donor 5” value [3, 7] was 1054, the “TNF-α, Donor 6” value [3, 7] was 2482 and the “TNF-α, Donor 2” value [3, 8] was 3426. The “TNF-α, Donor 3” value [3, 8] was 3955, the “TNF-α, Donor 4” value [3, 8] was 3702 and the “TNF-α, Donor 5” value [3, 8] was 1893. For the same compound, the “TNF-α, Donor 6” value [3, 8] was 3541, the “TNF-α, Donor 2” value [3, 9] was 3154 and the “TNF-α, Donor 3” value [3, 9] was 3907. The “TNF-α, Donor 4” value [3, 9] was 3369, the “TNF-α, Donor 5” value [3, 9] was 1706 and the “TNF-α, Donor 6” value [3, 9] was 3470. For the same compound, the “TNF-α, Donor 2” value [3, 10] was 2562, the “TNF-α, Donor 3” value [3, 10] was 3505 and the “TNF-α, Donor 4” value [3, 10] was 3077. For the same compound, the “TNF-α, Donor 5” value [3, 10] was 1525, the “TNF-α, Donor 6” value [3, 10] was 3142 and the “TNF-α, Donor 3” value [3, 11] was 931. For the same compound, the “TNF-α, Donor 4” value [3, 11] was 934, the “TNF-α, Donor 5” value [3, 11] was 594 and the “TNF-α, Donor 6” value [3, 11] was 1801. The “TNF-α, MV+SD” value ([3]; mean of donors (Donor 2 not done), LPS 3 h pre-incubation, then LPS+peptide 24h, peptide 1000 µM) was 1711.5, the “TNF-α, MV+SD” value ([3]; mean of donors (Donor 2 not done), LPS + peptide simultaneously, 24h, peptide 1000 µM) was 1065 and the “TNF-α, MV+SD” value [3, 12] was 3744. The “TNF-α, MV+SD” value [3, 13] was 3667.4, the “TNF-α, MV+SD” value [3, 14] was 3222.4 and the “TNF-α, MV+SD” value [3, 15] was 3303.4. The “TNF-α, MV+SD” value [3, 16] was 3121.2, the “TNF-α, MV+SD” value [3, 17] was 2762.2 and the “effect on LPS-induced TNF-α release ("inflammation")” value [3] was “inhibitory effect”.
For α-MSH [α-MSH Sigma], the “TNF-α, %” value [3, 4] was 89.62%, the “TNF-α, %” value [3, 5] was 81.56% and the “TNF-α, %” value [3, 6] was 54.57%. For the same compound, the “TNF-α, %” value [3, 8] was 70.97%, the “TNF-α, %” value [3, 9] was 61.67% and the “TNF-α, %” value [3, 10] was 32.86%. The “TNF-α, Donor 2” value [3, 4] was 5005, the “TNF-α, Donor 3” value [3, 4] was 4345 and the “TNF-α, Donor 4” value [3, 4] was 3968. For the same compound, the “TNF-α, Donor 5” value [3, 4] was 2070, the “TNF-α, Donor 6” value [3, 4] was 4286 and the “TNF-α, Donor 2” value [3, 5] was 4193. The “TNF-α, Donor 3” value [3, 5] was 3883, the “TNF-α, Donor 4” value [3, 5] was 3674 and the “TNF-α, Donor 5” value [3, 5] was 1799. The “TNF-α, Donor 6” value [3, 5] was 4356, the “TNF-α, Donor 2” value [3, 6] was 3009 and the “TNF-α, Donor 3” value [3, 6] was 2886. For the same compound, the “TNF-α, Donor 4” value [3, 6] was 2073, the “TNF-α, Donor 5” value [3, 6] was 942 and the “TNF-α, Donor 6” value [3, 6] was 2069. For the same compound, the “TNF-α, Donor 2” value [3, 8] was 4098, the “TNF-α, Donor 3” value [3, 8] was 3273 and the “TNF-α, Donor 4” value [3, 8] was 3116. The “TNF-α, Donor 5” value [3, 8] was 1319, the “TNF-α, Donor 6” value [3, 8] was 3100 and the “TNF-α, Donor 2” value [3, 9] was 3734. For the same compound, the “TNF-α, Donor 3” value [3, 9] was 2776, the “TNF-α, Donor 4” value [3, 9] was 2568 and the “TNF-α, Donor 5” value [3, 9] was 1237. For the same compound, the “TNF-α, Donor 6” value [3, 9] was 2638, the “TNF-α, Donor 2” value [3, 10] was 1207 and the “TNF-α, Donor 3” value [3, 10] was 2337. The “TNF-α, Donor 4” value [3, 10] was 1248, the “TNF-α, Donor 5” value [3, 10] was 713 and the “TNF-α, Donor 6” value [3, 10] was 1386. For the same compound, the “TNF-α, MV+SD” value [3, 12] was 3934.8, the “TNF-α, MV+SD” value [3, 13] was 3581 and the “TNF-α, MV+SD” value [3, 14] was 2395.8. For the same compound, the “TNF-α, MV+SD” value [3, 15] was 2981.2, the “TNF-α, MV+SD” value [3, 16] was 2590.6 and the “TNF-α, MV+SD” value [3, 17] was 1380.2. For the same compound, the “effect on LPS-induced TNF-α release ("inflammation")” value [3] was “inhibitory effect”.
